{
  "source": "patent US11547678B2",
  "about": "“Aqueous pharmaceutical formulation of tapentadol for oral administration” (GRÜNENTHAL GMBH, priority 2011, dated 2023)",
  "key": {"[1]": {"test": "Antimicrobial robustness testing of 4 mg/mL oral solution, higher sodium benzoate: USP and Pharm. Eur. requirements (Example 4)", "format": "cell-based", "conditions": "2.36 mg/mL sodium benzoate (corresponding to 2 mg/mL benzoic acid)", "protocol": "Antimicrobial Robustness Testing of 4 mg/mL Tapentadol Oral Solution (Higher Concentration of Sodium Benzoate)\nBased on the obtained results the test was repeated using a formulation containing a higher preservative concentration of 2.36 mg/mL instead of 1.77 mg/mL sodium benzoate.\nThe above study of example 3 was repeated using a formulation of 4 mg/mL tapentadol and 2.36 mg/mL sodium benzoate (corresponding to 2 mg/mL benzoic acid). The antimicrobial activity of the formulation was determined with 100% at target pH of 4 and with 80% of sodium benzoate at the pH limits of 3.5 and 4.5. The following compositions of the formulation were used for the antimicrobial robustness testing (Table 4)."}, "Aspergillus niger": {"system": "Aspergillus niger", "test": "Activity against Aspergillus niger at lower drug concentrations, pH 4.0 and 5.0 (Example 1)", "format": "cell-based", "excerpt": "Determination of Antimicrobial Effective Concentration of Tapentadol Hydrochloride\n(§1) The activity against mold (Aspergillus niger) is lower but still within the limits of the requirements of the Pharm. Eur. The activity of tapentadol hydrochloride against Aspergillus niger has been evaluated at lower drug concentrations and at pH 4.0 and 5.0 in formulations containing citric acid as buffer system and hydrochloric acid and sodium hydroxide to adjust the pH.\nThe requirements of Pharm. Eur. for oral solutions (log reduction of 1 after 14 and no increase after 28 days concerning mold A. niger) are met at pH 4 for tapentadol concentrations of equal or above 8 mg/mL and at pH 5 for concentrations equal or above to 4 mg/m L."}, "[2]": {"test": "Initial studies: antimicrobial activity of tapentadol hydrochloride", "format": "cell-based", "conditions": "10 mg/mL free base", "excerpt": "as §1"}, "yeast": {"system": "yeast", "test": "Initial studies: activity against yeast", "format": "cell-based", "conditions": "10 mg/mL free base"}, "mold (Aspergillus niger)": {"system": "mold (Aspergillus niger)", "test": "Initial studies: activity against mold", "format": "cell-based", "conditions": "10 mg/mL free base", "excerpt": "as §1"}, "[3]": {"test": "Antimicrobial robustness testing of 4 mg/mL oral solution, lower sodium benzoate: USP and Pharm. Eur. requirements (Example 3)", "format": "cell-based", "conditions": "4 mg/mL solution", "protocol": "Antimicrobial Robustness Testing of 4 mg/mL Tapentadol Oral Solution (Lower Concentration of Sodium Benzoate)\nThe 4 mg/mL solution of tapentadol has also been subjected to an antimicrobial robustness testing. […] Therefore, sodium benzoate has been used as a preservative in the formulation. The antimicrobial activity of the formulation was determined with 100% at target pH of 4 and with 80% of sodium benzoate at the pH limits of 3.5 and 4.5. The following compositions of the formulation were used for the antimicrobial robustness testing (Table 3)."}, "[4]": {"test": "Chemical stability of 4 and 20 mg/mL oral solution (Example 7)", "format": "physicochemical", "conditions": "3 months storage", "protocol": "Chemical Stability of 4 and 20 mg/mL Tapentadol Oral Solution\nTo investigate the chemical stability of tapentadol oral solutions in different concentrations (4 and 20 mg/mL), stability studies were performed over 3 months evaluating the following parameters appearance, assay of tapentadol, degradation, assay preservative (only for the 4 mg/mL formulation) and pH at 25° C./60% RH, 40° C./75% RH and 50° C. In addition, for the 4 mg/mL solution 2 weeks cycling studies (from −15° C. to 30° C. as well as from 5° C. to 40° C.) were performed."}},
  "data": [
    {"smiles": "O=C([O-])c1ccccc1.[Na+]", "note": "[sodium benzoate]", "values": [
      {"measurement": "antimicrobial efficacy for a 4 mg/mL tapentadol hydrochloride oral solution", "setting": "[1]", "result": "sufficient"}
    ]},
    {"smiles": "CC[C@@H](c1cccc(O)c1)[C@@H](C)CN(C)C.Cl", "note": "[tapentadol hydrochloride, (1R,2R)-3-(3-dimethylamino-1-ethyl-2-methyl-propyl)-phenol hydrochloride]", "values": [
      {"measurement": "antimicrobial activity at pH 5 compared with pH 4", "setting": "Aspergillus niger; after 14 and 28 days", "result": "better antimicrobial activity"},
      {"measurement": "concentration limit for antimicrobial effectiveness of tapentadol", "setting": "Aspergillus niger; depending on the pH (4 to 5)", "result": "4 to 8", "unit": "mg/mL"},
      {"measurement": "tapentadol concentration at which requirements of Pharm. Eur. for oral solutions concerning mold A. niger are met", "setting": "Aspergillus niger; pH 5, log reduction of 1 after 14 and no increase after 28 days", "result": "≥ 4", "unit": "mg/mL"},
      {"measurement": "antimicrobial activity", "setting": "[2]", "result": "high"},
      {"measurement": "activity against yeast", "setting": "yeast", "result": "high"},
      {"measurement": "activity against mold (Aspergillus niger)", "setting": "mold (Aspergillus niger)", "result": "lower but still within the limits of the requirements of the Pharm. Eur."},
      {"measurement": "antimicrobial effect of the drug substance", "setting": "[3]", "result": "not sufficiently pronounced"},
      {"measurement": "stability of the API in solution", "setting": "[4]", "result": "good stability"}
    ]}
  ]
}
